The results in this text go back to US6297230A, “Cyanoaziridines for treating cancer” (priority 2000, dated 2001).

The subject of test [1] is A-375 malignant melanoma cells. Put plainly: In vitro antitumor activity, A-375 melanoma. It is filed as cell-based, human. The source says:
1) in vitro tumor cell viability assays using MTT and SRB dye reaction endpoints.
Sulforhodamine B (SRB) Assay for Adherent Tumor Cells
Sulforhodamine B (SRB) is a protein binding aminoxanthene dye with two sulfonic acid groups. (Lillie, R. D., H. J. Conn's Biological Stains, 9th Ed., Baltimore; Williams & Wilkins, 1977.) It quantitates whole cell protein content by the intensity of dye staining and relates this to the number of viable cells. […] The SRB assay is used for cells which normally adhere to surfaces (in this case plastic culture flasks or petri dishes) as part of their requirement for growth and division in vitro. The SRB assay is currently used by the National Cancer Institute in the anticancer drug screening program. (Skehan, et al., J Natl Cancer Inst 82:1107-1112, 1990; Rubinstein, et al., J Natl Cancer Inst 82:1113-1118, 1990.) Methodologic comparisons have shown that SRB results are linear for the number of tumor cells over a 100-fold range, and for protein content determined by a modified Lowry method or Standard Bradford (Bradford, M., Anal Biochem 72:248-254, 1976) methods. […] (Lillie, R. D., H. J. Conn's Biological Stains, 9th Ed., Baltimore; Williams & Wilkins, 1977.)
Cell cultures of 10^3 -10^7 cells growing in 96-well plastic microtiter plates are fixed with 50% trichloroacetic acid (TCA) for 30 minutes at 4° C. The cells are then stained with 0.4% (w/v) sulforhodamine B (SRB) dissolved in 1% acetic acid. Unbound dye is removed by 4 washes with 1% acetic acid, and protein-bound dye is extracted with 10 mM unbuffered Tris® base [tris(hydroxymethyl)aminomethane]. The optical density (OD) of this extracted solution is measured at […] in a microtiter plate ultraviolet absorbance detector. Cell viability is expressed as percent of control by dividing the optical densities and multiplying the result by 100.
Microculture Tetrazolium (MTT) Assay for Tumor Cells
(§1) Tumors are disaggregated into single cell suspensions using mechanical, hypoosmotic, and/or enzymatic (trypsin) methods. The cells are plated at a concentration of 3-5×10^4 per […] well into plastic 96-well plates. Growth medium containing 5-10% (vol/vol) heat-inactivated fetal bovine serum and penicillin/streptomycin (both […]) are added prior to incubation at 37° C. for 6 days. Afterwards the medium containing the drug is removed, the cells are centrifuged in fresh medium or phosphate-buffered saline (pH 7.4). A tetrazolium dye, […]-2,5-diphenyl tetrazolium (MTT), is then added. (Mossman, T., J Immunol 65:55-63, 1983.) This dye forms a colored formazan product upon activation by mitochondrial reductases in viable cells. Typically, the formazan product is solubilized in acid-propanol or DMSO. The intensity of the color is proportional to viable cell numbers and this is quantitated by spectrophotometric absorbance at 570 nm on a micro ELISA plate reader. The results are calibrated in % control absorbance from untreated tumor cells. (Alley, et al., Cancer Res 48:589-601, 1988.)
Table 3 gives the potencies of the new aziridine-1-carboxamides in a panel of human and murine tumor cells in culture. The tumor cell lines in this table are selected to represent a range of histological and growth phenotypes. Their characteristics are described below.
4.0 The Human A-375 Malignant Melanoma Cell Line was also developed by Girard, et al. (Girard, et al., J Natl Cancer Inst 51(5):1417-1423, 1973) from a human with advanced melanoma. The modal chromosome number is 67 and it has a low plating (colony forming) efficiency of 0.7% when grown on agar. These cells also form rapidly growing tumors when injected subcutaneously into immunodeficient athymic (nu/nu) mice. (Girard, et al., J Natl Cancer Inst 51(5):1417-1423, 1973.) These cells are also used in the NCI drug screening panel. (Skehan, et al., J Natl Cancer Inst 82:1107-1112, 1990.)

The subject of test [2] is L-1210 MDR leukemia cells. Put plainly: MTT growth inhibition, multidrug-resistant L-1210 leukemia cells. It is filed as cell-based, mouse. The following applies: for IC50: MDR L-1210, drug continuously present 8 days; for Fold Resistance of IC50 's (MDR/S): L-1210 MDR vs sensitive, 11520 min. As for the experimental part: as §1
In addition, the imexon analogs have also been tested in a multidrug-resistant (MDR) mouse L-1210 leukemia cell line.
L-1210 MDR Cells represent a multidrug-resistant cell line developed for resistance to the alkylating agent mitomycin C. (Dorr, et al., Biochem Pharmacol 36(19):3115-3120, 1987.) This cell line has the same general growth characteristics of the parental line, but is cross-resistant to numerous natural-product based anticancer agents. This includes anthracyclines such as doxorubicin (Adriamycin®) and vinca alkaloids such as vincristine or vinblastine.
*Drug continuously present for 8 days; IC50 measured by MTT dye

The next test relates to 8226/I-R myeloma cells. Briefly: MTT growth inhibition, imexon-resistant 8226 myeloma cells. It is filed as cell-based, human. The following applies: for IC50 / Fold Resistance of IC50 R/IC50 's: Table 5; for IC50: imexon-resistant 8226; for Cross-resistance with imexon: 8226 imexon-resistant vs parental; for Fold Resistance of IC50 R/IC50 's: imexon-resistant vs sensitive 8226. In outline: (§2)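 Parental 8226/S and imexon-resistant 8226/I-R myeloma cells (selected with imexon up to 3.25 mg/mL) were exposed to drug continuously for 10 days at 37 °C. Viability was measured by MTT absorbance at 570 nm relative to untreated controls. IC50 was taken as the concentration giving 50% growth inhibition, from at least 2 assays.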

The test system of a further test is 8226/S myeloma cells. Briefly: MTT growth inhibition, parental 8226 myeloma cells. It is filed as cell-based, human. The following applies: for IC50: Table 5, Sensitive (parental) 8226; for Antitumor effect: parental and imexon-resistant myeloma cells; for Enhanced potency: decrease in IC50 against myeloma cell growth: compared with imexon; for Potency relative to imexon: myeloma cells. In outline: as §2

Where [3] appears, read: Mus musculus, L1210, 192 h, read-out: IC50.

Values after ≈ are worked out from the molar mass of the structure shown. “Also recorded” adds a separate entry of the source. Like-named read-outs stand apart in the source and are kept apart here.

For the compound `N#CC1CN1C(=O)Nc1ccc(S(N)(=O)=O)cc1` (stereo not shown) [AMP 422, 2-Cyanoaziridine-1-[N-(4-sulfamylphenyl)]carboxamide], the half-inhibitory concentration (IC50) (commonly the midpoint of a concentration-inhibition curve) in test [1] (Homo sapiens, read-out: IC50) was 50 µg/mL (≈ 188 µM); in test [2] (setting [3]) it was over 10 µg/mL; with 8226/I-R myeloma cells (Homo sapiens, read-out: IC50), under 100 µg/mL; in the test with 8226/S myeloma cells (Homo sapiens, read-out: IC50) it was over 100 µg/mL. Further, the “Antitumor effect” value with 8226/S myeloma cells is “no antitumor effects even at high concentrations”.

For the compound `CNC(=O)N1CC1C#N` (stereo not shown) [AMP 403, 2-Cyanoaziridine-1-(N-methyl)carboxamide], the IC50 in test [1] (Homo sapiens, read-out: IC50) is 2.1 µg/mL (≈ 16.8 µM); in test [2] (setting [3]), 2.7 µg/mL (≈ 21.6 µM); with 8226/I-R myeloma cells (Homo sapiens, read-out: IC50), 3.3 µg/mL (≈ 26.4 µM); in the test on 8226/S myeloma cells (Homo sapiens, read-out: IC50), 3.3 µg/mL (≈ 26.4 µM). Moreover, in test [2], the “Fold Resistance of IC50 's (MDR/S)” value worked out at 2.5. In addition, the “Cross-resistance with imexon” value with 8226/I-R myeloma cells is “lack of significant (>50% IC50 change) cross-resistance with imexon”. The “Fold Resistance of IC50 R/IC50 's” value in the test with 8226/I-R myeloma cells is given as 1.0.

Turning to `CCCCNC(=O)N1CC1C#N` (stereo not shown) [AMP 414, 2-Cyanoaziridine-1-(N-butyl)carboxamide], the IC50 in test [1] (Homo sapiens, read-out: IC50) is 2.5 µg/mL (≈ 15 µM); in test [2] (setting [3]) it was 2 µg/mL (≈ 12 µM); with 8226/I-R myeloma cells (Homo sapiens, read-out: IC50), 2.8 µg/mL (≈ 16.7 µM); in the test on 8226/S myeloma cells (Homo sapiens, read-out: IC50), 2.8 µg/mL (≈ 16.7 µM). The “Fold Resistance of IC50 's (MDR/S)” value in test [2] was found to be 1.0. Also, the “Cross-resistance with imexon” value in the test on 8226/I-R myeloma cells is “lack of significant (>50% IC50 change) cross-resistance with imexon”. Also, the “Fold Resistance of IC50 R/IC50 's” value with 8226/I-R myeloma cells worked out at 1.0.

As to `N#CC1CN1C(=O)NC1CCCCC1` (stereo not shown) [AMP 413, 2-Cyanoaziridine-1-(N-cyclohexyl)carboxamide], the IC50 in test [1] (Homo sapiens, read-out: IC50) was determined as 6.7 µg/mL (≈ 34.7 µM); in test [2] (setting [3]), 3.1 µg/mL (≈ 16 µM); in the test on 8226/I-R myeloma cells (Homo sapiens, read-out: IC50), 19 µg/mL (≈ 98.3 µM); with 8226/S myeloma cells (Homo sapiens, read-out: IC50), 7 µg/mL (≈ 36.2 µM). Also, the “Fold Resistance of IC50 's (MDR/S)” value in test [2] is given as 2.2.

`N#CC1CN1C(=O)Nc1ccc(Cl)cc1Cl` (stereo not shown) [AMP 407, 2-Cyanoaziridine-1-[N-(2,4-dichlorophenyl)]carboxamide]: the IC50 in test [1] (Homo sapiens, read-out: IC50) came out at 2 µg/mL (≈ 7.81 µM); in test [2] (setting [3]) it was 8.4 µg/mL (≈ 32.8 µM); with 8226/I-R myeloma cells (Homo sapiens, read-out: IC50), 2.4 µg/mL (≈ 9.37 µM); in the test with 8226/S myeloma cells (Homo sapiens, read-out: IC50), 1.2 µg/mL (≈ 4.69 µM). Further, the “Fold Resistance of IC50 's (MDR/S)” value in test [2] is reported as 0.16. The “Fold Resistance of IC50 R/IC50 's” value with 8226/I-R myeloma cells is recorded as 2.0. Besides, the “Enhanced potency: decrease in IC50 against myeloma cell growth” value in the test on 8226/S myeloma cells is on record as over 40%.

For the compound `N#CC1CN1C(=O)NCc1ccccc1` (stereo not shown) [AMP 412, 2-Cyanoaziridine-1-(N-benzyl)carboxamide], the IC50 in test [1] (Homo sapiens, read-out: IC50) was 2.2 µg/mL (≈ 10.9 µM); in test [2] (setting [3]) it was 2.1 µg/mL (≈ 10.4 µM); in the test with 8226/I-R myeloma cells (Homo sapiens, read-out: IC50), 2.2 µg/mL (≈ 10.9 µM); with 8226/S myeloma cells (Homo sapiens, read-out: IC50) it was 1.8 µg/mL (≈ 8.95 µM). Moreover, the “Fold Resistance of IC50 's (MDR/S)” value in test [2] amounted to 2.6. Moreover, in the test on 8226/I-R myeloma cells, the “Cross-resistance with imexon” value was “lack of significant (>50% IC50 change) cross-resistance with imexon; also recorded: no significant cross resistance”. Further, in the test with 8226/I-R myeloma cells, the “Fold Resistance of IC50 R/IC50 's” value was found to be 1.2. Moreover, the “Potency relative to imexon” value in the test on 8226/S myeloma cells is recorded as “roughly equal potency to imexon”.

For the compound `CC(=O)Oc1ccccc1NC(=O)N1CC1C#N` (stereo not shown) [AMP 424, 2-Cyanoaziridine-1-[N-(2-acetoxyphenyl)]carboxamide], the IC50 was over 10 µg/mL in test [1], over 10 µg/mL in test [2], over 100 µg/mL in the test on 8226/I-R myeloma cells and over 100 µg/mL with 8226/S myeloma cells. In test [2], the “Fold Resistance of IC50 's (MDR/S)” value amounted to 1.0. For the same compound, in the test with 8226/S myeloma cells, the “Antitumor effect” value was “no antitumor effects even at high concentrations”.

In the case of `CC(=O)c1cccc(NC(=O)N2CC2C#N)c1` (stereo not shown) [AMP 425, 2-Cyanoaziridine-1-[N-(3-acetylphenyl)]carboxamide], the IC50 in test [1] (Homo sapiens, read-out: IC50) turned out to be 1.8 µg/mL (≈ 7.85 µM); in test [2] (setting [3]), 1.8 µg/mL (≈ 7.85 µM); with 8226/I-R myeloma cells (Homo sapiens, read-out: IC50) it was 2.2 µg/mL (≈ 9.6 µM); with 8226/S myeloma cells (Homo sapiens, read-out: IC50), 1.98 µg/mL (≈ 8.64 µM). For the same compound, the “Fold Resistance of IC50 's (MDR/S)” value in test [2] worked out at 0.8. For the same compound, in the test on 8226/I-R myeloma cells, the “Cross-resistance with imexon” value was “lack of significant (>50% IC50 change) cross-resistance with imexon; also recorded: no significant cross resistance”. Further, the “Fold Resistance of IC50 R/IC50 's” value with 8226/I-R myeloma cells turned out to be 1.1. Further, the “Potency relative to imexon” value in the test on 8226/S myeloma cells is reported as “roughly equal potency to imexon”.

As for `N#CC1CN1C(=O)Nc1cccnc1` (stereo not shown) [AMP 421, 2-Cyanoaziridine-1-[N-(3-pyridyl)]carboxamide], the IC50 in test [1] (Homo sapiens, read-out: IC50) was determined as 2.3 µg/mL (≈ 12.2 µM); in test [2] (setting [3]) it was 2.1 µg/mL (≈ 11.2 µM); in the test on 8226/I-R myeloma cells (Homo sapiens, read-out: IC50), 2.8 µg/mL (≈ 14.9 µM); with 8226/S myeloma cells (Homo sapiens, read-out: IC50), 2.2 µg/mL (≈ 11.7 µM). Also, the “Fold Resistance of IC50 's (MDR/S)” value in test [2] was determined as 0.9. Also, the “Cross-resistance with imexon” value with 8226/I-R myeloma cells is recorded as “lack of significant (>50% IC50 change) cross-resistance with imexon”. The “Fold Resistance of IC50 R/IC50 's” value in the test with 8226/I-R myeloma cells is on record as 1.3.

With `N#CC1CN1C(=O)Nc1cccc2ccccc12` (stereo not shown) [AMP 423, 2-Cyanoaziridine-1-[N-(1-naphthyl)]carboxamide], the IC50 was determined as 1 µg/mL (≈ 4.21 µM) in test [1] (Homo sapiens, read-out: IC50); 0.64 µg/mL (≈ 2.7 µM) in test [2] (setting [3]); 2.1 µg/mL (≈ 8.85 µM) in the test on 8226/I-R myeloma cells (Homo sapiens, read-out: IC50); 1 µg/mL (≈ 4.21 µM) in the test with 8226/S myeloma cells (Homo sapiens, read-out: IC50). For the same compound, the “Fold Resistance of IC50 's (MDR/S)” value in test [2] came to 0.4. For the same compound, the “Fold Resistance of IC50 R/IC50 's” value with 8226/I-R myeloma cells was determined as 2.1. In addition, the “Enhanced potency: decrease in IC50 against myeloma cell growth” value with 8226/S myeloma cells is given as over 40%.
